Measured values published in PubChem BioAssay (NCI).
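Method: 48-hour compound exposure of cells in 96-well plates, five concentrations, linear interpolation of endpoints. Abbreviation: GI50, concentration required for 50% inhibition of growth. TGI denotes the concentration required for complete inhibition of growth.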

Legend:
Assay in all cases: growth of human tumour cells (NCI), 48 h
ACHN renal = system: ACHN renal
EKVX NSCLC = system: EKVX NSCLC
K-562 leukemia = system: K-562 leukemia
M14 melanoma = system: M14 melanoma
OVCAR-5 ovarian = system: OVCAR-5 ovarian
SK-MEL-28 melanoma = system: SK-MEL-28 melanoma
SNB-19 CNS = system: SNB-19 CNS
UACC-62 melanoma = system: UACC-62 melanoma
DU-145 prostate = system: DU-145 prostate
MDA-MB-231 breast = system: MDA-MB-231 breast

| SMILES | TGI (ACHN renal) [µM] | TGI (EKVX NSCLC) [µM] | TGI (K-562 leukemia) [µM] | TGI (M14 melanoma) [µM] | TGI (OVCAR-5 ovarian) [µM] | TGI (SK-MEL-28 melanoma) [µM] | TGI (SNB-19 CNS) [µM] | TGI (UACC-62 melanoma) [µM] | GI50 (ACHN renal) [µM] | GI50 (DU-145 prostate) [µM] | TGI (DU-145 prostate) [µM] | GI50 (EKVX NSCLC) [µM] | GI50 (M14 melanoma) [µM] | GI50 (MDA-MB-231 breast) [µM] | TGI (MDA-MB-231 breast) [µM] | GI50 (OVCAR-5 ovarian) [µM] | GI50 (SK-MEL-28 melanoma) [µM] | GI50 (SNB-19 CNS) [µM] | GI50 (UACC-62 melanoma) [µM] | GI50 (K-562 leukemia) [µM] |
| --- | --- | --- | --- | --- | --- | --- | --- | --- | --- | --- | --- | --- | --- | --- | --- | --- | --- | --- | --- | --- |
| C[C@]12CCC(=O)C(O)=C1CC[C@@H]1C2CC[C@]2(C)NC(=O)CCC12 (some centres not stated) | > 100 | > 100 | > 100 | > 100 | > 100 | > 100 | > 100 | > 100 |  |  |  |  |  |  |  |  |  |  |  |  |
| COc1ccc(-c2cc(=O)c3ccccc3o2)cc1N | > 100 | > 100 | > 100 | > 100 | > 100 | > 100 | > 100 | > 100 |  |  |  |  |  |  |  |  |  |  |  |  |
| C=C(NC(=O)C(=C)NC(=O)c1csc(C2=NC3c4csc(n4)C4NC(=O)c5csc(n5)C(C(C)(O)C(C)O)NC(=O)C5CSC(=N5)C(=CC)NC(=O)C(C(C)O)NC(=O)c5csc(n5)C3(CC2)NC(=O)C(C)NC(=O)C(=C)NC(=O)C(C)NC(=O)C(C(C)CC)NC2C=Cc3c(C(C)O)cc(nc3C2O)C(=O)OC4C)n1)C(N)=O (configuration not stated) | > 100 | > 100 |  | 12.7 | 79.9 | 24.5 | > 100 | 32.6 | 8.25 | 58.7 | > 100 | 32.5 | 3.49 | 6.46 | > 100 | 25.5 | 7.09 | 54 | 4.34 |  |
| O=C1c2ccccc2-c2oc(=O)c3ccccc3c21 | > 100 | > 100 |  | > 100 | > 100 | > 100 | > 100 | > 100 |  |  | > 100 |  |  |  | > 100 |  |  |  |  |  |
| O=C(c1ccccc1)c1c(-c2ccccc2)sc2nc3ccccc3nc12 | > 100 | > 100 | > 100 | > 100 | > 100 | > 100 | > 100 | > 100 |  |  |  |  |  |  |  |  |  |  |  |  |
| CC(C)C[C@H](NC(=O)Cn1ccc(NCc2ccccc2)cc1=O)B(O)O | > 100 |  | > 100 | 7.08 | > 100 | 47 | > 100 | 11.1 | 0.427 | 5.48 | > 100 |  | 1.35 | 3.18 | 19.8 | 5.29 | 0.6 | 4.96 | 1.6 | 3.48 |
| COc1ccc(-c2cc(-c3cccn3C)c(C#N)c(=O)[nH]2)cc1OC | > 100 | > 100 | > 100 |  | > 100 | > 100 | > 100 | > 100 | > 100 | > 100 | > 100 | 30.7 |  | > 100 | > 100 | > 100 | > 100 | > 100 | 65.5 | > 100 |
